The supplement of paper PMC10307832

Assays:
Assay in all cases: relative viability (nuclei count vs DMSO), 5 days (fraction); higher = more cells survive
BEN = tested on: BEN
In short: (§1)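 Five library-drug doses in √10 steps were combined with a fixed anchor-drug dose, or a single drug was given alone, by pin tool to lung cancer cell lines in 1536-well plates the day after seeding. Nuclei were stained and counted after 5 days. Relative viability is the nuclei count in treated wells over that in vehicle wells, taken as the median of duplicate plates.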

EKVX = tested on: EKVX
In short: as §1

HARA = tested on: HARA
In short: as §1

HCC-366 = tested on: HCC-366
In short: as §1

HCC-827 = tested on: HCC-827
In short: as §1

LC-2-ad = tested on: LC-2-ad
In short: as §1

LOU-NH91 = tested on: LOU-NH91
In short: as §1

NCI-H1355 = tested on: NCI-H1355
In short: as §1

NCI-H1395 = tested on: NCI-H1395
In short: as §1

NCI-H1437 = tested on: NCI-H1437
In short: as §1

NCI-H1734 = tested on: NCI-H1734
In short: as §1

NCI-H1792 = tested on: NCI-H1792
In short: as §1

NCI-H2009 = tested on: NCI-H2009
In short: as §1

NCI-H2087 = tested on: NCI-H2087
In short: as §1

NCI-H2170 = tested on: NCI-H2170
In short: as §1

NCI-H2228 = tested on: NCI-H2228
In short: as §1

NCI-H2342 = tested on: NCI-H2342
In short: as §1

NCI-H2405 = tested on: NCI-H2405
In short: as §1

NCI-H596 = tested on: NCI-H596
In short: as §1

NCI-H647 = tested on: NCI-H647
In short: as §1

NCI-H661 = tested on: NCI-H661
In short: as §1

SK-LU-1 = tested on: SK-LU-1
In short: as §1

SK-MES-1 = tested on: SK-MES-1
In short: as §1

**Q.** Which results are given for `O=C(O)c1ccc(-c2c[nH]c3ncc(-c4ccccc4)cc23)cc1C1CCCC1` + CC(=O)Nc1cccc(-n2c(=O)n(C3CC3)c(=O)c3c(Nc4ccc(I)cc4F)n(C)c(=O)c(C)c32)c1 [Trametinib] (partner 0.02 µM)?
**A.** relative viability (BEN; first compound 0.04 µM): 1.19; relative viability (BEN; first compound 0.1265 µM): 1.05; relative viability (BEN; first compound 0.4 µM): 1.08; relative viability (BEN; first compound 1.265 µM): 0.957; relative viability (EKVX; first compound 0.04 µM): 0.322; relative viability (EKVX; first compound 0.1265 µM): 0.408; relative viability (EKVX; first compound 0.4 µM): 0.33; relative viability (EKVX; first compound 1.265 µM): 0.316; relative viability (HARA; first compound 0.04 µM): 0.692; relative viability (HARA; first compound 0.1265 µM): 0.72; relative viability (HARA; first compound 0.4 µM): 0.74; relative viability (HARA; first compound 1.265 µM): 0.545; relative viability (HCC-366; first compound 0.04 µM): 0.343; relative viability (HCC-366; first compound 0.1265 µM): 0.466; relative viability (HCC-366; first compound 0.4 µM): 0.311; relative viability (HCC-366; first compound 1.265 µM): 0.309; relative viability (HCC-827; first compound 0.04 µM): 0.574; relative viability (HCC-827; first compound 0.1265 µM): 0.575; relative viability (HCC-827; first compound 0.4 µM): 0.487; relative viability (HCC-827; first compound 1.265 µM): 0.362; relative viability (LC-2-ad; first compound 0.04 µM): 0.876; relative viability (LC-2-ad; first compound 0.1265 µM): 0.921; relative viability (LC-2-ad; first compound 0.4 µM): 0.897; relative viability (LC-2-ad; first compound 1.265 µM): 0.769; relative viability (LOU-NH91; first compound 0.04 µM): 0.774; relative viability (LOU-NH91; first compound 0.1265 µM): 0.848; relative viability (LOU-NH91; first compound 0.4 µM): 0.773; relative viability (LOU-NH91; first compound 1.265 µM): 0.681; relative viability (NCI-H1355; first compound 0.04 µM): 0.42; relative viability (NCI-H1355; first compound 0.1265 µM): 0.412; relative viability (NCI-H1355; first compound 0.4 µM): 0.459; relative viability (NCI-H1355; first compound 1.265 µM): 0.391; relative viability (NCI-H1395; first compound 0.04 µM): 0.987; relative viability (NCI-H1395; first compound 0.1265 µM): 1.09; relative viability (NCI-H1395; first compound 0.4 µM): 1.02; relative viability (NCI-H1395; first compound 1.265 µM): 0.957; relative viability (NCI-H1437; first compound 0.04 µM): 0.476; relative viability (NCI-H1437; first compound 0.1265 µM): 0.609; relative viability (NCI-H1437; first compound 0.4 µM): 0.541; relative viability (NCI-H1437; first compound 1.265 µM): 0.202; relative viability (NCI-H1734; first compound 0.04 µM): 0.618; relative viability (NCI-H1734; first compound 0.1265 µM): 0.706; relative viability (NCI-H1734; first compound 0.4 µM): 0.614; relative viability (NCI-H1734; first compound 1.265 µM): 0.585; relative viability (NCI-H1792; first compound 0.04 µM): 0.375; relative viability (NCI-H1792; first compound 0.1265 µM): 0.454; relative viability (NCI-H1792; first compound 0.4 µM): 0.407; relative viability (NCI-H1792; first compound 1.265 µM): 0.392; relative viability (NCI-H2009; first compound 0.04 µM): 0.261; relative viability (NCI-H2009; first compound 0.1265 µM): 0.311; relative viability (NCI-H2009; first compound 0.4 µM): 0.274; relative viability (NCI-H2009; first compound 1.265 µM): 0.224; relative viability (NCI-H2087; first compound 0.04 µM): 0.204; relative viability (NCI-H2087; first compound 0.1265 µM): 0.209; relative viability (NCI-H2087; first compound 0.4 µM): 0.179; relative viability (NCI-H2087; first compound 1.265 µM): 0.205; relative viability (NCI-H2170; first compound 0.04 µM): 0.899; relative viability (NCI-H2170; first compound 0.1265 µM): 0.925; relative viability (NCI-H2170; first compound 0.4 µM): 0.887; relative viability (NCI-H2170; first compound 1.265 µM): 0.79; relative viability (NCI-H2228; first compound 0.04 µM): 0.548; relative viability (NCI-H2228; first compound 0.1265 µM): 0.581; relative viability (NCI-H2228; first compound 0.4 µM): 0.633; relative viability (NCI-H2228; first compound 1.265 µM): 0.305; relative viability (NCI-H2342; first compound 0.04 µM): 0.768; relative viability (NCI-H2342; first compound 0.1265 µM): 0.839; relative viability (NCI-H2342; first compound 0.4 µM): 0.906; relative viability (NCI-H2342; first compound 1.265 µM): 0.711; relative viability (NCI-H2405; first compound 0.04 µM): 0.64; relative viability (NCI-H2405; first compound 0.1265 µM): 0.651; relative viability (NCI-H2405; first compound 0.4 µM): 0.627; relative viability (NCI-H2405; first compound 1.265 µM): 0.587; relative viability (NCI-H596; first compound 0.04 µM): 0.726; relative viability (NCI-H596; first compound 0.1265 µM): 0.815; relative viability (NCI-H596; first compound 0.4 µM): 0.777; relative viability (NCI-H596; first compound 1.265 µM): 0.802; relative viability (NCI-H647; first compound 0.04 µM): 0.432; relative viability (NCI-H647; first compound 0.1265 µM): 0.477; relative viability (NCI-H647; first compound 0.4 µM): 0.478; relative viability (NCI-H647; first compound 1.265 µM): 0.389; relative viability (NCI-H661; first compound 0.04 µM): 0.585; relative viability (NCI-H661; first compound 0.1265 µM): 0.628; relative viability (NCI-H661; first compound 0.4 µM): 0.585; relative viability (NCI-H661; first compound 1.265 µM): 0.59; relative viability (SK-LU-1; first compound 0.04 µM): 0.522; relative viability (SK-LU-1; first compound 0.1265 µM): 0.591; relative viability (SK-LU-1; first compound 0.4 µM): 0.513; relative viability (SK-LU-1; first compound 1.265 µM): 0.37; relative viability (SK-MES-1; first compound 0.04 µM): 0.57; relative viability (SK-MES-1; first compound 0.1265 µM): 0.538; relative viability (SK-MES-1; first compound 0.4 µM): 0.521; relative viability (SK-MES-1; first compound 1.265 µM): 0.524
